“Also recorded” adds a separate entry of the source. Peptide text beside a SMILES is read from it. * marks the point of attachment. 5FAM = O=C1OC2(c3ccc(O)cc3Oc3cc(O)ccc32)c2ccc(C(=O)*)cc21
Columns and labels:
[1] = test system: Wnt3a-mediated β-catenin signaling in HEK293-TB cells; type: cell-based
hFZD7 CRD-His = target: T1, hFZD7 CRD-His (Homo sapiens, UniProt O75084); assay: SEC-MALS of hFZD7 CRD-His incubated with peptide; type: binding
T1 construct: hFZD7 CRD-His [Gln33-Gly168] was expressed as a secreted protein in Trichoplusia ni cells expressing EndoH; made in house; host or cells: Trichoplusia ni cells expressing EndoH, treated with Kifunensine (baculovirus)
Protocol: Samples were resolved by a Superdex S200 3.2/300 column (General Electric Healthcare Life Science, Pittsburgh, Pa.; cat. no. 28990946) at 0.15 mL/min in 150 mM NaCl, 50 mM Tris-HCl pH 7.5 buffer with 1% DMSO final concentration. Runs were performed on a 1260 infinity HPLC (Agilent Technology, Santa Clara, Calif.) connected to a Dawn Heleos-II multi-angle static Light Scattering (MALS) detector and a Optilab T-rEX differential Refractive Index (dRI) detector (Wyatt Technologies, Santa Barbara, Calif.).
Samples were resolved by a Superdex S200 3.2/300 column (General Electric Healthcare Life Science, Pittsburgh, Pa.; 28990946) at a 0.15 mL/min in 150 mM NaCl, 50 mM Tris-HCl pH 7.5 buffer with 1% DMSO final concentration. Column was connected to a 1260 infinity HPLC (Agilent Technology, Santa Clara, Calif.) connected to a Dawn Heleos-II Multi-Angle static Light Scattering (MALS) detector and the Optilab T-rEX differential Refractive Index (dRI) detectors (Wyatt Technologies, Santa Barbara, Calif.).

[2] = test system: Wnt3a-mediated stabilization of β-catenin in mouse L cells; assay: in-cell western of β-catenin protein in L cells treated with Wnt3a; type: cell-based
Protocol: DMSO controls were performed in parallel. Following treatment, the L-cells were fixed, permeabilized, probed with fluorescently labeled anti-β-catenin antibodies, and observed via in-cell western assay (i.e., as described in Hannoush, R. N. (2008) PLoS One 3, e3498) to assess β-catenin protein levels. The values in Table 7 are averages of at least 3 independent replicates, ±standard deviation.

[3] = test system: Wnt5a binding to FZD1 CRD, FZD2 CRD, and FZD7 CRD; assay: ELISA of biotinylated Wnt5a binding to FZD CRD-Fc; conditions: FIGS. 22A, 22B
Protocol: (§1) 384-well Maxisorp plates (cat. no. 464718; Thermo Scientific) were incubated with 30 μL of Neutravidin (cat. no. 31000, Thermo Scientific; 2 μg/mL in PBS) overnight at 4° C. Plates were then washed with PBST and blocked with PBS/1% BSA for 1 hour at RT and then washed with PBST prior to further processing. The binding assay was conducted in 96 well plates (cat no. 83007-374; VWR) which were blocked with PBS/1% BSA overnight at 4° C. hFZD4 CRD-Fc or hFZD7 CRD-Fc (63 ng/mL) were incubated with either Bio-Wnt3a (25 ng/mL) or Bio-Wnt5a (50 ng/mL) in the presence of 4-fold serial dilutions of the indicated peptide in PBS overnight at 4° C. All assays included hFZD9 CRD-mIgG2A protein as a negative control. hFZD7 CRD-His was suspended in 150 mM NaCl, 50 mM Tris-HCl at pH 7.5 and when used in assays an equal volume of the same buffer control was used. The binding assay mixtures were transferred to the Neutravidin coated plates and incubated for ˜1 h at RT. The wells were then washed with PBST, incubated with anti-hIgG1-HRP (1:10,000 suspended in PBS supplemented with 1% BSA; cat. no. A18817, Invitrogen), and washed again with PBST. The signal was developed with the addition of TMB reagent (following the manufacturer's recommendation; KPL; 50-76-00) for 15 min prior to the addition of an equal volume of 1 M phosphoric acid for 10 min Absorbance was measured at 450 nm using a Tekan M1000 plate reader. Values were collected and plotted using Prism Graphpad software. All assay conditions using peptides were at 1% DMSO final concentration. […]
(§2) Briefly, the assays were performed using (a) FZD1 CRD-Fc, (b) FZD2 CRD-Fc, (c) FZD4 CRD-Fc, or (d) FZD7 CRD-Fc as the capture reagent and biotinylated-Wnt5a as the detection reagent. […] Streptavidin-HRP was used to detect biotinylated Wnt5a, and HRP activity was measured as a function of chemiluminescence detection at 428 nm. […]

[4] = test system: receptor-independent β-catenin signaling in 6-BIO-treated HEK293-TB cells; assay: epistasis study, HEK293-TB cells stimulated with 6-BIO; type: cell-based; conditions: 10 μM 6-BIO, 6 hr; FIG. 2E
[5] = target: T2, Wnt3a binding to FZD4 CRD (Homo sapiens, UniProt Q9ULV1); assay: ELISA of biotinylated Wnt3a binding to FZD CRD-Fc; conditions: peptide 0-10 μM
T2 construct: hFZD4 CRD-Fc (cat no. 5847-FZ); purchased R&D systems 5847-FZ
T2 sequence (Q9ULV1 40-161 limits assumed): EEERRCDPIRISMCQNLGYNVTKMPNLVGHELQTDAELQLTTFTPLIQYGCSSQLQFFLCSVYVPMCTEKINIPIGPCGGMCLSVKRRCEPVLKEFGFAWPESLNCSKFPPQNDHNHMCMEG
Protocol: 384-well Maxisorp plates (cat. no. 464718; Thermo Scientific) were incubated with 30 μL of Neutravidin (cat. no. 31000, Thermo Scientific; 2 μg/mL in PBS) overnight at 4° C. Plates were then washed with PBST and blocked with PBS/1% BSA for 1 hour at RT and then washed with PBST prior to further processing. The binding assay was conducted in 96 well plates (cat no. 83007-374; VWR) which were blocked with PBS/1% BSA overnight at 4° C. hFZD4 CRD-Fc or hFZD7 CRD-Fc (63 ng/mL) were incubated with either Bio-Wnt3a (25 ng/mL) or Bio-Wnt5a (50 ng/mL) in the presence of 4-fold serial dilutions of the indicated peptide in PBS overnight at 4° C. All assays included hFZD9 CRD-mIgG2A protein as a negative control. hFZD7 CRD-His was suspended in 150 mM NaCl, 50 mM Tris-HCl at pH 7.5 and when used in assays an equal volume of the same buffer control was used. The binding assay mixtures were transferred to the Neutravidin coated plates and incubated for ˜1 h at RT. The wells were then washed with PBST, incubated with anti-hIgG1-HRP (1:10,000 suspended in PBS supplemented with 1% BSA; cat. no. A18817, Invitrogen), and washed again with PBST. The signal was developed with the addition of TMB reagent (following the manufacturer's recommendation; KPL; 50-76-00) for 15 min prior to the addition of an equal volume of 1 M phosphoric acid for 10 min Absorbance was measured at 450 nm using a Tekan M1000 plate reader. Values were collected and plotted using Prism Graphpad software. All assay conditions using peptides were at 1% DMSO final concentration.
Without being bound be theory, the substantial conformational change induced by dFz7-21 on hFZD7 CRD, as exemplified by the altered geometry of the lipid binding cavity, may facilitate the accommodation of two Wnt molecules simultaneously onto the hFZD7 CRD dimer (FIG. 4e-h).
Similar results were observed using Wnt3a. […] Binding of Wnt3a to FZD1 CRD, FZD2 CRD, and FZD7 CRD increased in the presence of dFz7-21 at concentrations below about 0.5 μM (FIG. 22E), with the most binding seen in the presence of 0.01 μM-0.05 μM dFz7-21. […] Fz7-21S had no effect on Binding of Wnt3a to any of the FZD CRDs tested (FIG. 22F).

[6] = target: T3, Wnt5a binding to FZD4 CRD (Homo sapiens, UniProt Q9ULV1); assay: ELISA of biotinylated Wnt5a binding to FZD CRD-Fc; conditions: peptide 0-10 μM
T3 construct: hFZD4 CRD-Fc (cat no. 5847-FZ); purchased R&D systems 5847-FZ
T3 sequence (Q9ULV1 40-161 limits assumed): T2 sequence (Q9ULV1 40-161 limits assumed)
Protocol: as §1, §2

FZD CRD-Fc proteins = assay: fluorescence size-exclusion chromatography (FSEC) with FZD CRD-Fc proteins; type: binding; conditions: 1 μM peptide, 250 nM FZD CRD-Fc, overnight at 4° C.; FZD1, FZD2 and FZD7 CRD-Fc
Protocol: (§3) Fluorescence size-exclusion chromatography (FSEC) experiments were run using an AKTA FPLC system (General Electric Company) with UNICORN software package (version 5.31). Samples were resolved using a SEC3000 or SEC2000 (Phenomenex; Torrence, Calif.) column at 0.5 mL/min in phosphate buffer. Fluorescence was monitored using a FP-2020 Plus fluorescence detector (Jasco Analytical Instruments, Easton, Md.) in normal mode (excitation/emission, […]; gain=100; STD=32). All samples were prepared with a final DMSO concentration of 1% and incubated overnight at 4° C. prior to sample separation. FZD CRD-Fc samples were kept at ˜250 nM in the presence of excess 5FAM labeled peptide (1 μM). […]
Selective targeting of the FZD7 receptor subclass was also observed chromatographically. […] See FIGS. 4A and 4B, which provide representative fluorescence traces of 1 μM 5FAM-Fz7-21 and 1 μM 5FAM-Fz7-21S, respectively, incubated with various FZD CRD-Fc proteins (250 nM) overnight at 4° C. prior to analysis by FSEC. […] In FIG. 24A, molecular weight (MW) standards analyzed by UV absorption were plotted as a function of elution volume (Ve) over void volume (Vo). […] Measured values represent the mean±standard deviation (SD) of three independent experiments. […] Binding to recombinant FZD3 and 6 CRDs could not be assessed due to challenges with the expression of these proteins. […]

[7] = test system: human sFRP1, sFRP2, sFRP3, sFRP4, or sFRP5; assay: FSEC with secreted Frizzled-related proteins; type: binding; conditions: sFRP ~250 nM, peptide 10 μM
Protocol: as §3, with “μM). Human secreted Frizzled-related proteins were maintained at ˜250 nM in the presence of excess 5FAM-labeled peptide (10 μM).” for “μM).”
For FIGS. 4C and 5C, values represent the mean±s.e.m. of three independent experiments. […] Samples were resolved using a SEC3000 column (Phenomenex; Torrence, Calif.) at 0.5 mL/min in phosphate buffer saline (PBS) and fluorescence was monitored with an FP-2020 Plus fluorescence detector (Jasco Analytical Instruments, Easton, Md.) using normal mode (excitation/emission […]); gain=100; STD=32. […] Molecular weights were determined by standards (BioRad catalogue number, 151-1901) run prior to sample runs.

FZD CRD-Fc = assay: binding of 5FAM peptides to the FZD CRD-Fc panel; conditions: any members of the FZD CRD family
Protocol: Control experiments using 5FAM-Fz7-21S were performed in parallel. 5FAM-Fz7-21 or 5FAM-Fz721S was incubated with each of the aforementioned FZD CRD-Fcs overnight at 4° C. in PBS and resolved via SEC.
In FIGS. 3A-3I, 5FAM-Fz7-21 or 5FAM-Fz7-21S (50 nM in PBS) was incubated with increasing concentration of FZD CRD-Fc (2-fold serial dilutions), and fluorescence intensity was measured using either a Monolith NT.115 or NT.115Pico instrument (NanoTemper Technologies). EC50 values represent the 95% confidence interval of at least three independent experiments, excepting hFZD1 CRD-Fc+5FAM-Fz7-21S, which was done twice. EC50 ovalues were calculated with Prism Graphpad using the Log(agonist) vs. response [variable slope (four parameters) function: Y=Bottom+(Top-Bottom)/(1+10^((Log EC−X)*HillSlope))]. Plotted values represent the mean±s.e.m.

Row | Compound | HEK293S-TB % Remaining Activity ([1]; measured at 100 μM peptide, mean ± standard deviation) | IC50 ([1]; read-out: IC50, Wnt3a-stimulated β-catenin signaling) | ΔMW (kDa) (hFZD7 CRD-His; 1:5, relative to the DMSO control) | homodimerization or oligomerization of hFZD7 CRD-His (hFZD7 CRD-His; concentration-dependent) | MW (kDa) (hFZD7 CRD-His; hFZD7 CRD 15.8 μM, protein:peptide 1:1, 2 h) | MW (kDa) (hFZD7 CRD-His; protein:peptide 1:5) | MW (kDa) (hFZD7 CRD-His; protein:peptide 1:10) | L CELLS % Remaining Activity ([2]; measured at 11.11 μM of peptide) | Wnt3a-mediated stabilization of β-catenin ([2]; mouse L cells) | IC50 ([2]; β-catenin by immunofluorescence, Wnt3a 2.5 nM, 5 hours, mean ± standard deviation) | peptide concentration with the most Wnt5a binding [3] | inhibition of Wnt signaling in 6-BIO-treated cells [4] | effect on Wnt3a binding to FZD4 CRD [5] | effect on Wnt5a binding to FZD4 CRD [6] | complex with FZD CRD-Fc resolved by FSEC (FZD CRD-Fc proteins) | binding to sFRPs by FSEC [7] | binding (FZD CRD-Fc)
1 | LPSDDLEFWCHVMY [Fz7-21] | 5.15 ± 2.88% | 90 to 100 nM | 6.4 kDa | induced homodimerization or oligomerization | 21.9 kDa | 27.3 kDa | 32 kDa | 50.98^G ± 3.76% | blocked | 50 ± 30 nM | 0.1 µM | Neither Fz7-21 nor Fz7-21S inhibited | did not show any effect; also recorded: Neither Fz7-21 nor dFz7-21 had any effect | did not show any effect; also recorded: no such effect |  |  | 
2 | CSCC[C@H](NC(=O)[C@@H](NC(=O)[C@H](Cc1c[nH]cn1)NC(=O)[C@H](CO)NC(=O)[C@H](Cc1c[nH]c2ccccc12)NC(=O)[C@H](Cc1ccccc1)NC(=O)[C@H](CCC(=O)O)NC(=O)[C@H](CC(C)C)NC(=O)[C@H](CC(=O)O)NC(=O)[C@H](CC(=O)O)NC(=O)[C@H](CO)NC(=O)[C@@H]1CCCN1C(=O)[C@H](CC(C)C)NC(=O)c1ccc2c(c1)C(=O)OC21c2ccc(O)cc2Oc2cc(O)ccc21)C(C)C)C(=O)N[C@@H](Cc1ccc(O)cc1)C(N)=O [5FAM-Fz7-21S] (5FAM-LPSDDLEFWSHVMY-NH2; N-terminus and C-terminus assumed) |  |  |  |  |  |  |  |  |  |  |  |  |  |  | no complex was observed | not found to bind | no detectable binding

Source: patent US20190359653A1, “SELECTIVE PEPTIDE INHIBITORS OF FRIZZLED” (Genentech, Inc., priority 2016, published 2019)
